Test results reported in patent US12404252B2, “Salt of 2-amino-2-(2-(1-decyl-1H-1,2,3-triazol-4-yl)ethyl)propane-1,3-diol, and pharmaceutical composition containing same” (NEXTGEN BIOSCIENCE CO., LTD, priority 2021, dated 2025).

Key:
Photostability test = assay type: physicochemical
Description: For a photostability test, 10 mg of Compound 1a was exposed to 1.2 million lux hours of ultraviolet and visible light at room temperature. For an oxidation stability test, 0.2 mL of 30% H2O2 and 1 mg of Compound 1a were placed in a 2-mL vial and stored at 25° C. for up to 24 hours. The photostability and oxidation stability conditions used to evaluate the fumarate salt of Compound 1 and the evaluation results are as follows.

[1] = Oxidation stability test (30% H2O2); assay type: physicochemical
[2] = tested on: dextran sulfate sodium (DSS)-induced colitis model; assay: DSS-induced colitis mouse model, disease activity index; assay type: in vivo; conditions: DSS mice
Description: The effectiveness of Compound 1a against inflammatory bowel disease was evaluated using the dextran sulfate sodium (DSS)-induced colitis model. In the mouse model, inflammatory bowel disease was induced by administering DSS to mice at a concentration of 2.5% via drinking water. Mice were divided into a test group administered Compound 1a, a positive control group administered ozanimod or MTX (methotrexate), a vehicle group, and a normal control group, and each group had n=10. Compound 1, a compound of the present invention, was orally administered at doses of 5 and 10 mg/kg once a day for 7 days to the inflammatory bowel disease-induced model, and ozanimod as a positive control was administered orally at a dose of 5 mg/kg once a day, and MTX (methotrexate) as a positive control was administered intraperitoneally at a dose of 3 mg/kg three times a week.
DAI represents the total score of weight loss relative to initial weight, stool consistency, and degree of intestinal bleeding of the mouse. The criteria for calculation of DAI are shown in Table 10 below, and DAI was evaluated on days 0, 1, 2, 3, 4, 5, 6, 7, and 8.

[3] = Effect on cardiovascular system in beagle dogs (telemetry); assay type: in vivo; conditions: oral 12.5, 25, and 50 mg/kg
Description: Compound 1a was orally administered to four non-anesthetized and unrestrained male beagle dogs implanted with remote transmitters. Next, the heart rates of the four beagle dogs were measured to evaluate the effect of Compound 1a on the cardiovascular system, and whether abnormal symptoms occurred was visually checked.
In this experiment, the test substance was administered to each of the four beagle dogs in four steps. In the first administration step (0 mg/kg of Compound 1a), 0.5% MC aqueous solution as control vehicle was administered, and in the second administration step, 12.5 mg/kg of Compound 1a was administered. In the third administration step, 25 mg/kg of Compound 1a was administered, and in the fourth administration step, 50 mg/kg of Compound 1a was administered. The first to fourth administrations were performed at one-week intervals. Additionally, 0 hour before administration of the test substance, and 0.5 hours, 1 hour, 2 hours, 3 hours, 4 hours, 6 hours, 8 hours, 12 hours, and 24 hours after administration of the test substance, the heart rates of the beagle dogs were measured.

[4] = tested on: unilateral ureteral obstruction (UUO) model; assay: Unilateral ureteral obstruction (UUO) renal fibrosis model; assay type: in vivo; conditions: UUO mice, 2 weeks
Description: The antifibrotic effect of Compound 1a in renal disease was evaluated using the unilateral ureteral obstruction (UUO) model, which is a renal fibrotic disease model. Kidney fibrosis was induced by unilateral ureteral obstruction of mice, and then Compound 1a at 10, 30, and 90 mg/kg/day and the positive control substance telmisartan at 30 mg/kg/day were orally administered to the mice once a day for 2 weeks.

[5] = tested on: adenine-induced chronic kidney disease model; assay: Adenine-induced chronic kidney disease model; assay type: in vivo; conditions: adenine-induced CKD mice, 3 weeks
Description: The antifibrotic effect of Compound 1a was evaluated using an adenine-induced chronic kidney disease model. 0.5% adenine (in 0.5% CMC) was orally administered to mice for 4 weeks to induce chronic kidney disease, and Compound 1a at 10, 30, and 90 mg/kg/day and the positive control substance telmisartan 10 mg/kg/day were administered orally to the mice for 3 weeks, followed by measurement of serum creatinine, serum BUN, and kidney hydroxyproline, and histopathology. In addition, the tubular-interstitial index value was determined based on the above measurement results.

[6] = tested on: alopecia areata model (C3H/HeJ); assay: Alopecia areata model (C3H/HeJ); assay type: in vivo; conditions: C3H/HeJ mice, 30 mg/kg orally, 12 weeks
Description: The efficacy of Compound 1a against alopecia areata was evaluated using a model (C3H/HeJ) with spontaneous alopecia areata. The C3H/HeJ mice used in the test are animals that spontaneously develop alopecia areata with increasing age. […] 30 mg/kg of Compound 1a was administered orally to the mice for 12 weeks, and then disease-free ratio and AA lesion area were measured.

CCCCCCCCCCn1cc(CCC(N)(CO)CO)nn1 [Compound 1a, 2-amino-2-(2-(1-decyl-1H-1,2,3-triazol-4-yl)ethyl) propane-1,3-diol]
Purity % (Photostability test; Photostability 1.2 million lux hours exposed): 99.52% | Purity % (Photostability test; Photostability 1.2 million lux hours unexposed): 99.70% | Purity % ([1]; 30% H2O2 25° C. for 3 hours): 99.50% | Purity % ([1]; 30% H2O2 25° C. for 24 hours): 94.30% | clinical indicators (weight loss, stool consistency, intestinal bleeding) versus ozanimod ([2]; 5 mg/kg orally): equivalent to or higher than those of ozanimod | clinical indicators (weight loss, stool consistency, intestinal bleeding) versus ozanimod ([2]; 10 mg/kg orally): equivalent to or higher than those of ozanimod | general symptoms (visual observation) [3]: no abnormal symptoms were observed | heart rate ([3]; up to 24 hours): no change in the heart rate | Kidney hydroxyproline ([4]; 10 mg/kg/day orally): statistically significantly decreased | Kidney hydroxyproline ([4]; 30 mg/kg/day orally): statistically significantly decreased | Kidney hydroxyproline ([4]; 90 mg/kg/day orally): statistically significantly decreased | Kidney hydroxyproline (second statement, 'in particular', p<0.05) ([4]; 90 mg/kg/day orally): statistically significantly decreased | kidney hydroxyproline level compared to control group ([5]; 30 mg/kg/day orally): statistically significantly decreased | kidney fibrosis (tubular-interstitial index) ([5]; 90 mg/kg/day orally): statistically significantly decreased | serum BUN level ([5]; 90 mg/kg/day orally): 157.4 ± 32.3 mg/dL | serum creatinine level ([5]; 90 mg/kg/day orally): 0.90 ± 0.12 mg/dL | body weight versus control group [6]: no significant difference | days when 100% alopecia areata was observed [6]: 84 days
